Results reported in patent US6403614B1, “Benzothiophenes” (Eli Lilly and Company, priority 1997, dated 2002).

Assays:
Assay type in all cases: in vivo, Sprague Dawley rats
ovariectomized rats [1] = assay: Four Day Ovariectomized Rat Model: Serum Cholesterol Analysis; conditions: OVX rats, orally administered at 0.1 mg/kg/day, four days
From the text: (§1) Estrogenicity: Four Day Ovariectomized Rat Model
(§2) Seventy-five day old female Sprague Dawley rats (weight range of 225 g-275 g) were obtained from Charles River Laboratories (Portage, Mich.). The animals were either bilaterally ovariectomized (OVX) or exposed to a Sham surgical procedure at Charles River Laboratories, and then shipped after one week. Upon arrival, these rats were housed in metal hanging cases in groups of three or four animals per cage, and had ad libitum access to food (Teklad diet, TD 89222, 0.5% calcium, 0.4% phosphorous; Madison, Wis.) and water. Room temperature was maintained at 22.2° C.±1.7° C. with a minimum relative humidity of 40%. The photoperiod in the room was twelve hours light and twelve hours dark. […]
(§3) After a one-week acclimation period (two weeks post-OVX), daily dosing with test compound and 17α-ethynylestradiol was initiated. […] The animals were then sacrificed by asphyxiation with CO2, the uterus was removed through a midline incision, and a wet uterine weight was determined.
The blood samples, collected as described above, were allowed to clot at room temperature for two hours, and serum was obtained following centrifugation for ten minutes at 3000 rpm. Serum cholesterol was determined using a high-performance cholesterol assay (Boehringer Mannheim Diagnostics, Indianapolis, Ind.). […] Cholesterol concentration was then calculated against a standard curve.

ovariectomized rats [2] = assay: Four Day Ovariectomized Rat Model: wet uterine weight; conditions: OVX rats, orally administered at 0.1 mg/kg/day, four days, versus untreated ovariectomized animals
From the text: as §1
Seventy-five day old female Sprague Dawley rats (weight range of 225 g-275 g) were obtained from Charles River Laboratories (Portage, Mich.). The animals were either bilaterally ovariectomized (OVX) or exposed to a Sham surgical procedure at Charles River Laboratories, and then shipped after one week. Upon arrival, these rats were housed in metal hanging cases in groups of three or four animals per cage, and had ad libitum access to food (Teklad diet, TD 89222, 0.5% calcium, 0.4% phosphorous; Madison, Wis.) and water. Room temperature was maintained at 22.2° C.±1.7° C. with a minimum relative humidity of 40%. The photoperiod in the room was twelve hours light and twelve hours dark. Comparative data were obtained between untreated ovariectomized rats, ovariectomized rats treated with 17α-ethynylestradiol (EE2), and ovariectomized rats treated with representative compounds of the present invention.
as §3, with “initiated. The test compounds or 17α-ethynylestradiol (Sigma Chemical Co., St. Louis, Mo.) were given orally, unless otherwise stated, as a suspension in 20% cyclodextrin (CDX).” for “initiated.”

ovariectomized rats [3] = assay: Four Day Ovariectomized Rat Model: Uterine Eosinophil Peroxidase (EPO) Assay; conditions: OVX rats, oral daily for four days
From the text: as §1, §2, §3
Uteri were kept at 4° C. until time of enzymatic analysis. […] Upon addition of 0.01% hydrogen peroxide and […] o-phenylenediamine (final concentrations) in Tris buffer, the increase in absorbance was monitored for one minute at 450 nm. […] The maximal velocity of a fifteen second interval was determined over the initial, linear portion of the reaction curve.

ovariectomized rats [4] = assay: Bone Sparing: Five Week Ovariectomized Rat Model, femur X-ray Bone Assay; conditions: OVX rats, oral gavage daily for 35 days, dose of 0.01 mg/kg
From the text: Seventy-five day old female Sprague Dawley rats (weight range of 275 g-350 g) were obtained from Charles River Laboratories (Portage, Mich.). The animals were either bilaterally ovariectomized (OVX) or exposed to a Sham surgical procedure at Charles River Laboratories, and then shipped the day following surgery. Upon arrival, these rats were housed in metal hanging cases in groups of three or four animals per cage, and had ad libitum access to food (Teklad diet, TD 89222, 0.5% calcium, 0.4% phosphorous; Madison, Wis.) and water. Room temperature was maintained at 22.2° C.±1.7° C. with a minimum relative humidity of 40%. The photoperiod in the room was twelve hours light and twelve hours dark. Test compound preparation was the same as that described in the Estrogenicty assay above. After a one day acclimation period (two days post-OVX), dosing with test compounds was initiated. Oral gavages 20% CDX, representative compound of the invention (0.01 to 10 mg/kg), or 17α-ethynylestradiol (100 μg/kg) were delivered daily for 35 consecutive days. On the evening following the final dose, the animals were fasted. The next morning the animals were aneshetized with a mixture of Ketaset® and Rompun® (67 and 6.7 mg/kg respectively). […] Quantitation was achieved by measuring the total number of pixels in a standard region of interest proximal to the growth plate, over a gray scale range of zero to 60.

Row | Structure (SMILES) | serum cholesterol (ovariectomized rats [1]) | uterine weight (ovariectomized rats [2]) | eosinophil infiltration (uterine EPO) (ovariectomized rats [3]) | protection of the femur from bone loss (X-ray evaluation) (ovariectomized rats [4]) [%]
1 | C#C[C@]1(O)CC[C@H]2[C@@H]3CCc4cc(O)ccc4[C@H]3CC[C@@]21C [EE2, 17α-ethynylestradiol] | caused a decrease in serum cholesterol | substantially greater than the uterine weight of untreated ovariectomized test animals | substantial, expected increase in eosinophil infiltration | 
2 | CCOCOc1ccc(-c2sc3cc(OCOCC)ccc3c2C(=O)c2ccc(OCCN3CCCCC3)cc2)cc1 [Example 3, 2-(4-[Ethoxymethoxy]phenyl)-3-(4-[(2-Piperidin-1-yl)ethoxy]benzoyl)-6-Ethoxymethoxybenzo[b]thiophene] |  |  |  | 9.1
